Literature values in patent US20080292726A1, “[…] COMPOSITIONS AND METHODS OF THEIR USE” (priority 2007, published 2008).

Test system: mouse model of uveitis
Details: systemically administered, subcutaneously injected into the neck

Structure (SMILES): O=[N+]([O-])[O-].O=[N+]([O-])[O-].O=[N+]([O-])[O-].[Ga+3] [gallium nitrate]
- efficacy in a mouse model of uveitis: effective
